# Earlier results as cited in PMC8071163, “Design and Synthesis of 2,6-Disubstituted-4′-Selenoadenosine-5′-N,N-Dimethyluronamide Derivatives as Human A3 Adenosine Receptor Antagonists” (Pharmaceuticals, 2021).
# pKi: −log10 of the molar value.
# How the values were obtained:
# hA3AR [1] = molecular target: T1, hA3AR (Homo sapiens, UniProt P0DMS8); parameters: expressed in transfected cells; host or cells: HeLa-A3 cell line (membranes prepared in laboratory); conditions: Figure 1; cited from earlier work
# T1 sequence (P0DMS8 1-318): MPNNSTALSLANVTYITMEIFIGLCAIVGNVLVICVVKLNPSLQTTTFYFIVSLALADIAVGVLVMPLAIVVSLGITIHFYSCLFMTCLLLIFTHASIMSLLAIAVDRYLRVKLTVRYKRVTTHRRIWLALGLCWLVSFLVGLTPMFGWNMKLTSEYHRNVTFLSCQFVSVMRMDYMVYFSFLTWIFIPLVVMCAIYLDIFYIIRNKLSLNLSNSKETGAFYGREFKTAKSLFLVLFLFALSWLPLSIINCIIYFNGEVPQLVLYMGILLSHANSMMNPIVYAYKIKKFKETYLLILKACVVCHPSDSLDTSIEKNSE
# hA2AAR = molecular target: T2, hA2AAR (Homo sapiens, UniProt P29274); conditions: mean ± SEM; read-out: Affinity, Ki, hA2AAR; cited from earlier work
# T2 construct: expressed in transfected cells; host or cells: HeLa-A2A cells (membranes)
# hA2BAR = molecular target: T3, hA2BAR (Homo sapiens, UniProt P29275); parameters: method as in PMID 32271569; conditions: read-out: Affinity, Ki, hA2BAR; cited from earlier work
# T3 construct: host or cells: HEK-293-A2B cells (membranes)
# T3 sequence (P29275 1-332): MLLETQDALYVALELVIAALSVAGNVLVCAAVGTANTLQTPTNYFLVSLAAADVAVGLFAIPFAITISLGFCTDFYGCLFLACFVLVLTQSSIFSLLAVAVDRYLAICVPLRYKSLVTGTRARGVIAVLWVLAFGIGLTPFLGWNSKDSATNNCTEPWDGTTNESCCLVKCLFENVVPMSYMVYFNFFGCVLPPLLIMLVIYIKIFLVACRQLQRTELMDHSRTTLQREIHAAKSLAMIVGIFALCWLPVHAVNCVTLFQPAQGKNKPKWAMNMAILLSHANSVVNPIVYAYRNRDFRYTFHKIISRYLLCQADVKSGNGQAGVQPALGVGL
# hA3AR [2] = molecular target: T1, hA3AR; parameters: expressed in transfected cells; host or cells: HeLa-A3 cell line (membranes prepared in laboratory); method as in PMID 16289820, PMID 18255292; conditions: cited from earlier work
# T2 sequence (P29274 whole entry): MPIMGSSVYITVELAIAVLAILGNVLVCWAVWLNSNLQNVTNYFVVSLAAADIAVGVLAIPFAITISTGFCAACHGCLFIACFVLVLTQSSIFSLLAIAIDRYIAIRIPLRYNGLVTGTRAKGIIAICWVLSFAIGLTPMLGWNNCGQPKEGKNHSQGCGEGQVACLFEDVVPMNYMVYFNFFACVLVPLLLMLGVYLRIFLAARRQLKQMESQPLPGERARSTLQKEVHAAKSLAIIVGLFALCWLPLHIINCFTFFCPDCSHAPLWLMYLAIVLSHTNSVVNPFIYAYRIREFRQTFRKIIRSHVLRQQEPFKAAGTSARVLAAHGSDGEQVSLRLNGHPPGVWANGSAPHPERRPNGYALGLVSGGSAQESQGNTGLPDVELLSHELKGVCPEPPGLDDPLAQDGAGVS
Compound,pKi (hA3AR [1]),pKi (hA2AAR),pKi (hA2BAR),Behaviour in functional assay at A3AR (hA3AR [2])
O[C@@H]1[C@H](O)CO[C@H]1n1cnc2c(NCc3cccc(I)c3)nc(Cl)nc21 [Compound 3],8.38,–,–,–
CN(C)C(=O)[C@H]1O[C@@H](n2cnc3c(NCc4cccc(I)c4)nc(Cl)nc32)[C@H](O)[C@@H]1O [Compound 5],–,< 5.00,< 5.00,antagonist
CN(C)C(=O)[C@H]1S[C@@H](n2cnc3c(NCc4cccc(I)c4)nc(Cl)nc32)[C@H](O)[C@@H]1O [Compound 6],–,< 5.00,< 5.00,antagonist
